Assays:
rice = test: Test B flood test rice; assay type: in vivo, Oryza sativa
Method in brief: (§1)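 Plants were grown to the 2-leaf stage before treatment with test chemical, then held in a greenhouse for twelve to sixteen days. Injury was visually rated against untreated controls on a 0–10 scale, where 0 is no effect and 10 is complete control.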

rape = test: Test B pre/postemergence rape; assay type: in vivo, Brassica napus
Method in brief: (§2)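 Herbicidal effect was estimated by eye on a ten-point control scale after plants spent twelve to sixteen days in a greenhouse following soil or foliar treatment. Foliar sprays targeted plants at one to four leaves; all doses were formulated in a non-phytotoxic solvent with surfactant.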

morningglory = test: Test B pre/postemergence morningglory; assay type: in vivo, Ipomoea hederacea
Method in brief: as §2

pigweed = test: Test B pre/postemergence pigweed; assay type: in vivo, Amaranthus retroflexus
Method in brief: as §2

bamyardgrass = test: Test B flood test barnyardgrass; assay type: in vivo, Echinochloa crus-galli
Method in brief: as §1

soybean = test: Test B pre/postemergence soybean; assay type: in vivo, Glycine max
Method in brief: as §2

cocklebur = test: Test B pre/postemergence cocklebur; assay type: in vivo, Xanthium strumarium
Method in brief: as §2

purple nutsedge = test: Test B pre/postemergence purple nutsedge; assay type: in vivo, Cyperus rotundus
Method in brief: as §2

duck salad = test: Test B flood test duck salad; assay type: in vivo, Heteranthera limosa
Method in brief: as §1

bedstraw = test: Test B pre/postemergence bedstraw; assay type: in vivo, Galium aparine
Method in brief: as §2

blackgrass = test: Test B pre/postemergence blackgrass; assay type: in vivo, Alopecurus myosuroides
Method in brief: as §2

corn = test: Test B pre/postemergence corn; assay type: in vivo, Zea mays
Method in brief: as §2

smallflower flatsedge = test: Test B flood test smallflower flatsedge; assay type: in vivo, Cyperus difformis
Method in brief: as §1

sugar beet = test: Test B pre/postemergence sugar beet; assay type: in vivo, Beta vulgaris
Method in brief: as §2

wild oat = test: Test B pre/postemergence wild oat; assay type: in vivo, Avena fatua
Method in brief: as §2

giant foxtail = test: Test B pre/postemergence giant foxtail; assay type: in vivo, Setaria faberii
Method in brief: as §2

surinam grass = test: Test B pre/postemergence surinam grass; assay type: in vivo, Brachiaria decumbens
Method in brief: as §2

crabgrass = test: Test B pre/postemergence crabgrass; assay type: in vivo, Digitaria sanguinalis
Method in brief: as §2

velvetleaf = test: Test B pre/postemergence velvetleaf; assay type: in vivo, Abutilon theophrasti
Method in brief: as §2

wheat = test: Test B pre/postemergence wheat; assay type: in vivo, Triticum aestivum
Method in brief: as §2

[1] = Rate 62 g/ha, flood test species, Pre-emergence, visual evaluation after twelve to sixteen days
[2] = Rate 125 g/ha, under heading Pre-emergence, flood test species, visual evaluation after twelve to sixteen days
[3] = Rate 250 g/ha, Pre-emergence (flood test species), scale 0 to 10, 0 is no effect, 10 is complete control
[4] = Rate 500 g/ha, Pre-emergence section of Table B, 0 to 10 scale (0 no effect, 10 complete control)
[5] = Postemergence, Rate 125 g/ha, scale 0 to 10, 0 is no effect, 10 is complete control
[6] = Postemergence, Rate 500 g/ha, scale 0 to 10, 0 is no effect, 10 is complete control
[7] = Preemergence, Rate 62 g/ha, scale of 0 to 10 where 0 is no effect and 10 is complete control
[8] = Preemergence, Rate 125 g/ha, scale 0 to 10, 0 is no effect, 10 is complete control
[9] = Preemergence, Rate 500 g/ha, scale of 0 to 10 where 0 is no effect and 10 is complete control
[10] = Rate 62 g/ha, Postemergence, scale 0 to 10, 0 no effect, 10 complete control
[11] = Postemergence, Rate 250 g/ha, scale 0 to 10
[12] = Preemergence, Rate 250 g/ha, scale 0 to 10, 0 is no effect, 10 is complete control

CC(C)N(C(=O)n1oc(=O)n(CC2=CCCCC2)c1=O)c1ccccc1 [Compound 496]
Plant response rating, Rice (0 to 10 scale, 0 is no effect, 10 is complete control) (rice; [1]): 0
Rice plant response rating (0 to 10 scale, 0 is no effect, 10 is complete control) (rice; [2]): 0
Rice plant response rating (rice; [3]): 0
Rice plant response rating (rice; [4]): 0
Rape plant response rating (rape; [5]): 0
Plant response rating, Rape (rape; [6]): 0
Plant response rating, Rape (rape; [7]): 0
Rape plant response rating (rape; [8]): 0
Rape plant response rating (rape; [9]): 0
Rape plant response rating (rape; [10]): 0
Morningglory plant response rating (morningglory; [5]): 8
Plant response rating, Morningglory (morningglory; [6]): 8
Plant response rating, Morningglory (morningglory; [7]): 0
Morningglory plant response rating (morningglory; [8]): 0
Morningglory plant response rating (morningglory; [9]): 0
Morningglory plant response rating (morningglory; [10]): 8
Redroot pigweed plant response rating (pigweed; [5]): 0
Plant response rating, Redroot pigweed (pigweed; [6]): 3
Plant response rating, Redroot pigweed (pigweed; [7]): 0
Redroot pigweed plant response rating (pigweed; [8]): 0
Redroot pigweed plant response rating (pigweed; [9]): 8
Redroot pigweed plant response rating (pigweed; [10]): 0
Plant response rating, Barnyardgrass (0 to 10 scale, 0 is no effect, 10 is complete control) (bamyardgrass; [1]): 0
Barnyardgrass plant response rating (0 to 10 scale, 0 is no effect, 10 is complete control) (bamyardgrass; [2]): 0
Barnyardgrass plant response rating (bamyardgrass; [3]): 0
Barnyardgrass plant response rating (bamyardgrass; [4]): 0
Soybean plant response rating (soybean; [5]): 3
Plant response rating, Soybean (soybean; [6]): 3
Plant response rating, Soybean (soybean; [7]): 0
Soybean plant response rating (soybean; [8]): 0
Soybean plant response rating (soybean; [9]): 0
Soybean plant response rating (soybean; [10]): 2
Cocklebur plant response rating (cocklebur; [5]): 0
Cocklebur plant response rating (cocklebur; [11]): 0
Plant response rating, Cocklebur (cocklebur; [6]): 1
Plant response rating, Cocklebur (cocklebur; [7]): 0
Cocklebur plant response rating (cocklebur; [8]): 0
Cocklebur plant response rating (cocklebur; [12]): 0
Cocklebur plant response rating (cocklebur; [9]): 0
Cocklebur plant response rating (cocklebur; [10]): 0
Nutsedge plant response rating (purple nutsedge; [5]): 0
Plant response rating, Nutsedge (purple nutsedge; [6]): 0
Plant response rating, Nutsedge (purple nutsedge; [7]): 0
Nutsedge plant response rating (purple nutsedge; [8]): 0
Nutsedge plant response rating (purple nutsedge; [9]): 0
Nutsedge plant response rating (purple nutsedge; [10]): 0
Plant response rating, Ducksalad (0 to 10 scale, 0 is no effect, 10 is complete control) (duck salad; [1]): 0
Ducksalad plant response rating (0 to 10 scale, 0 is no effect, 10 is complete control) (duck salad; [2]): 0
Ducksalad plant response rating (duck salad; [3]): 0
Ducksalad plant response rating (duck salad; [4]): 0
Bedstraw plant response rating (bedstraw; [11]): 0
Plant response rating, Bedstraw (bedstraw; [7]): 0
Bedstraw plant response rating (bedstraw; [8]): 0
Blackgrass plant response rating (blackgrass; [5]): 3
Blackgrass plant response rating (blackgrass; [11]): 3
Plant response rating, Blackgrass (blackgrass; [6]): 5
Plant response rating, Blackgrass (blackgrass; [7]): 0
Blackgrass plant response rating (blackgrass; [8]): 0
Blackgrass plant response rating (blackgrass; [12]): 2
Blackgrass plant response rating (blackgrass; [9]): 2
Blackgrass plant response rating (blackgrass; [10]): 2
Corn plant response rating (corn; [5]): 0
Corn plant response rating (corn; [11]): 0
Plant response rating, Corn (corn; [6]): 0
Plant response rating, Corn (corn; [7]): 0
Corn plant response rating (corn; [8]): 0
Corn plant response rating (corn; [9]): 0
Corn plant response rating (corn; [10]): 0
Plant response rating, S. Flatsedge (0 to 10 scale, 0 is no effect, 10 is complete control) (smallflower flatsedge; [1]): 0
S. Flatsedge plant response rating (0 to 10 scale, 0 is no effect, 10 is complete control) (smallflower flatsedge; [2]): 0
S. Flatsedge plant response rating (smallflower flatsedge; [3]): 0
S. Flatsedge plant response rating (smallflower flatsedge; [4]): 0
Sugarbeets plant response rating (sugar beet; [5]): 0
Plant response rating, Sugarbeets (sugar beet; [6]): 0
Plant response rating, Sugarbeets (sugar beet; [7]): 0
Sugarbeets plant response rating (sugar beet; [8]): 0
Sugarbeets plant response rating (sugar beet; [9]): 0
Sugarbeets plant response rating (sugar beet; [10]): 0
Wild oats plant response rating (wild oat; [5]): 0
Plant response rating, Wild oats (wild oat; [6]): 2
Plant response rating, Wild oats (wild oat; [7]): 0
Wild oats plant response rating (wild oat; [8]): 0
Wild oats plant response rating (wild oat; [9]): 0
Wild oats plant response rating (wild oat; [10]): 0
Giant foxtail plant response rating (giant foxtail; [5]): 0
Plant response rating, Giant foxtail (giant foxtail; [6]): 0
Plant response rating, Giant foxtail (giant foxtail; [7]): 2
Giant foxtail plant response rating (giant foxtail; [8]): 8
Giant foxtail plant response rating (giant foxtail; [9]): 9
Giant foxtail plant response rating (giant foxtail; [10]): 0
B. signalgrass plant response rating (surinam grass; [5]): 0
B. signalgrass plant response rating (surinam grass; Postemergence, Rate 250 g/ha, scale 0 to 10, 0 no effect, 10 complete control): 0
Plant response rating, B. signalgrass (surinam grass; [6]): 4
Plant response rating, B. signalgrass (surinam grass; [7]): 0
B. signalgrass plant response rating (surinam grass; [8]): 0
B. signalgrass plant response rating (surinam grass; [12]): 1
B. signalgrass plant response rating (surinam grass; Preemergence, Rate 500 g/ha, scale 0 to 10, 0 is no effect, 10 is complete control): 8
B. signalgrass plant response rating (surinam grass; [10]): 0
Crabgrass plant response rating (crabgrass; [5]): 0
Crabgrass plant response rating (crabgrass; [11]): 0
Plant response rating, Crabgrass (crabgrass; [6]): 2
Plant response rating, Crabgrass (crabgrass; [7]): 0
Crabgrass plant response rating (crabgrass; [8]): 4
Crabgrass plant response rating (crabgrass; [9]): 9
Crabgrass plant response rating (crabgrass; [10]): 0
Velvetleaf plant response rating (velvetleaf; [5]): 0
Plant response rating, Velvetleaf (velvetleaf; [6]): 0
Plant response rating, Velvetleaf (velvetleaf; [7]): 0
Velvetleaf plant response rating (velvetleaf; [8]): 0
Velvetleaf plant response rating (velvetleaf; [9]): 0
Velvetleaf plant response rating (velvetleaf; [10]): 0
Wheat plant response rating (wheat; [5]): 0
Plant response rating, Wheat (wheat; [6]): 3
Plant response rating, Wheat (wheat; [7]): 0
Wheat plant response rating (wheat; [8]): 0
Wheat plant response rating (wheat; [9]): 0
Wheat plant response rating (wheat; [10]): 0

Source: patent US6737383B1, “Herbicidal oxadiazolidines” (priority 1999, dated 2004)
